Measurements reported in patent US20230406883A1, “COMPOUNDS AND THEIR USE IN TREATMENT OF TACHYKININ RECEPTOR MEDIATED DISORDERS” (Embark Biotech ApS, priority 2020, published 2023).
“And” between values parts separate entries of the source, which are not always exact repeats. Equal values may be shown once. Read-outs that look alike come from different tables or passages of the source. Numbered stars: 1 amine (or outer) side, 2 acyl side, 3 side chain; on linkers, the order of the positions; unused ones are H or OH. Square brackets hold non-standard residues; d marks the D form. Peptide text beside a SMILES is read from it. * marks the point of attachment. C18 diacid = O=C(O)CCCCCCCCCCCCCCCCC(=O)*; C16 diacid = O=C(O)CCCCCCCCCCCCCCC(=O)*; γGlu = O=C(O)[C@H](CCC(=O)[*:2])N[*:1]; NMeL = CN[C@@H](CC(C)C)C(=O)O; hSer = N[C@@H](CCO)C(=O)O; Nle = CCCC[C@H](N)C(=O)O; AEEA = NCCOCCOCC(=O)O

What was measured:
hNK1R = target: T1, hNK1R (Homo sapiens, UniProt P25103); test: IP3 assay (inositol trisphosphate, 3H-myoinositol) in transiently transfected COS-7 cells; assay type: cell-based; settings: for EC50: 0.2% ovalbumin buffer
T1 construct: host or cells: COS-7
T1 sequence (P25103 whole entry): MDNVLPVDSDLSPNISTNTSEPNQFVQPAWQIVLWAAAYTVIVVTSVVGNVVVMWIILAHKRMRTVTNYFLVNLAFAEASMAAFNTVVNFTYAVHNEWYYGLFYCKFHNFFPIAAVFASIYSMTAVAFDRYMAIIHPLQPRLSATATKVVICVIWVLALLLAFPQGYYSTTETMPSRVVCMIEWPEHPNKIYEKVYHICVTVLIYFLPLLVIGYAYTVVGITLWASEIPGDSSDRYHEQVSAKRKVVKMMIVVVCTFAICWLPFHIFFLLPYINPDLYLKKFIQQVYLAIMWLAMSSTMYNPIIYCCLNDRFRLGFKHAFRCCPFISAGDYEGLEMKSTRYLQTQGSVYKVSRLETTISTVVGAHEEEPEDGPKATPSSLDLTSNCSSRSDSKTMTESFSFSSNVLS
Summary of the method: (§1)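 COS-7 cells were transiently transfected with receptor plasmid and labelled with ³H-myo-inositol. Cells were lysed in formic acid, and ³H-inositol phosphates were captured on SPA YSI beads and counted.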

hNK2R [1] = target: T2, hNK2R (Homo sapiens, UniProt P21452); test: as above; assay type: cell-based; settings: COS-7 cells; for EC50: 0.2% ovalbumin buffer; for hNK2R, IP3 Efficacy: figure legends: percent of 10^-6 M NKA
T2 construct: host or cells: COS-7
T2 sequence (P21452 1-398): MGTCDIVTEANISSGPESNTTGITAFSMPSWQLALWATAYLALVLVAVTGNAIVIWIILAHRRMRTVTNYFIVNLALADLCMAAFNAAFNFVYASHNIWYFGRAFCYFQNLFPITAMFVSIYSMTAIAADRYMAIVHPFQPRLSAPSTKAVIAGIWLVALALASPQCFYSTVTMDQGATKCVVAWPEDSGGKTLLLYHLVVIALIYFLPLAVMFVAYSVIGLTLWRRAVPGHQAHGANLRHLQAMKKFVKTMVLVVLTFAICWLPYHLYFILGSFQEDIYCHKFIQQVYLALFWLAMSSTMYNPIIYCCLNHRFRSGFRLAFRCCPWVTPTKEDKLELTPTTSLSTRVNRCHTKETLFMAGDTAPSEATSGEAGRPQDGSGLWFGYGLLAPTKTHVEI
Summary of the method: as §1

hNK3R = target: T3, hNK3R (Homo sapiens, UniProt P29371); test: as above; assay type: cell-based; settings: for EC50: 0.2% ovalbumin buffer, read-out: hNK3, IP3 EC50
T3 construct: host or cells: COS-7
T3 sequence (P29371 1-465): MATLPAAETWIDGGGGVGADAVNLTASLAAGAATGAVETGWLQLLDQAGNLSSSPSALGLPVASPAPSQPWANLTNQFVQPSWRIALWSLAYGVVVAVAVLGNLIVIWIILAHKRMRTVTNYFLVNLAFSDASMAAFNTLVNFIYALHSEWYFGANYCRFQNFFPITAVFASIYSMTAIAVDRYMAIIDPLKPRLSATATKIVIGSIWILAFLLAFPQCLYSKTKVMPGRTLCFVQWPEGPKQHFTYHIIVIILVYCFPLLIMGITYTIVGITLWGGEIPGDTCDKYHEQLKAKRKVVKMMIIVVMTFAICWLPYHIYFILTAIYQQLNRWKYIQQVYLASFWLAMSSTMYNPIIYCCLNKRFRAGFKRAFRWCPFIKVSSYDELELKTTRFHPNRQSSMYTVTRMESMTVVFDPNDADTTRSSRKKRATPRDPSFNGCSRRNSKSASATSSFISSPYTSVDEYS
Summary of the method: as §1

hNK2R [2] = target: T2, hNK2R; test: 3H-NKA competitive binding on transfected COS-7 cells; settings: competition with 3H-NKA, 4 h at 4 C
Experimental: Assays were carried out using COS-7 cells transiently transfected by calcium phosphate transfection with a vector pcDNA3.1(+) encoding one of the indicated receptors (Genscript). Briefly, DNA mixed with CaCl2 (2 M) and TE-buffer (10 mM Tris-HCl, 1 mM EDTA, pH 7.5) was dropwise added to 2×HBS (50 mM HEPES, 280 mM NaCl, 1.5 mM NaH2PO4, pH 7.2) and incubated for 45 min at room temperature (22±2° C.). The mixture and a final concentration of 100 μM Chloroquine were added to the cells and left to incubate for 5 hours at 37° C. under standard cell culture conditions (10% CO2) before changing medium to fresh maintenance medium.
The ^3H-NKA binding assay measures peptide-receptor binding by a competitive principle of receptor binding between radioactively labelled (3H) NKA (tracer) and synthesized peptide ligands on live cells expressing the receptor of interest. Assay solutions used: TKR buffer (50 mM Tris/HCl pH 7.5, 5 mM MnCl2, and 150 mM NaCl), wash buffer (TKR buffer+0.2% w/v OvAlb), binding buffer (wash buffer+0.1 mg/ml Bacitracin), and tracer solution (binding buffer+˜15000 cpm/well ^3H-tracer). The assay was performed on ice the day after transfection.
Briefly, maintenance medium was aspirated, and plates were washed ×1 in cold wash buffer before adding 100 μl cold binding buffer and placing at 4° C. to let plates cool. The cold plates were added indicated peptides (ligand) immediately followed by addition of cold tracer solution (˜15000 cpm/well). Plates were immediately moved to 4° C. and incubated for 4 hours. After incubation, binding was stopped by wash ×2 with cold wash buffer before adding 225 μl Ultima Gold XR. Plates were shaken at medium speed for approximately 30 min and left overnight at room temperature before counting the plates in a MicroBeta plate counter (Perkin Elmer).

[3] = COS-7 cells, figure legends: percent of 10^-6 M NKA

SMILES | EC50 (hNK1R; COS-7 cells) | hNK1R, IP3 Efficacy (hNK1R; [3]) | EC50 (hNK2R [1]) [nM] | hNK2R, IP3 Efficacy (hNK2R [1]) | hNK3, IP3 Efficacy (hNK3R; [3]) [%] | EC50 (hNK3R; COS-7 cells) [nM] | hNK1R, IP3 Efficacy (hNK1R) [%] | hNK3, IP3 Efficacy (hNK3R) [%] | EC50 (hNK2R [2]) [nM]
COCC[C@H](NC(=O)[C@H](CC(C)C)N(C)C(=O)CNC(=O)[C@@H](NC(=O)[C@H](Cc1ccc(O)cc1)NC(=O)[C@H](CCCCN)NC(=O)[C@H](CCC(=O)O)NC(=O)COCCOCCNC(=O)COCCOCCNC(=O)CC[C@H](NC(=O)CCCCCCCCCCCCCCCCC(=O)O)C(=O)O)C(C)C)C(N)=O [compound 382, *Glu;Lys;Tyr;Val;Gly;NmLeu;Metox;NH2] ({C18 diacid-γGlu-AEEA-AEEA}-EKYVG[NMeL][hSer](Me)-NH2) | ~3800 nM | 30% | 3.7 | 95% | 20 |  |  |  | 
CCCC[C@H](NC(=O)[C@H](CC(C)C)N(C)C(=O)CNC(=O)[C@H](CCCNC(=N)N)NC(=O)[C@H](Cc1ccc(O)cc1)NC(=O)[C@H](CCCCN)NC(=O)[C@H](CCC(=O)O)NC(=O)COCCOCCNC(=O)COCCOCCNC(=O)CC[C@H](NC(=O)CCCCCCCCCCCCCCCCC(=O)O)C(=O)O)C(N)=O [compound 314, *Glu;Lys;Tyr;Arg;Gly;NmLeu;Nle;NH2] ({C18 diacid-γGlu-AEEA-AEEA}-EKYRG[NMeL][Nle]-NH2) |  | 0% | ~3100 | 45% | 0 |  |  |  | 
CCCC[C@H](NC(=O)[C@H](CC(C)C)N(C)C(=O)CNC(=O)[C@@H](NC(=O)[C@H](Cc1ccccc1)NC(=O)[C@H](CCCCNC(=O)COCCOCCNC(=O)COCCOCCNC(=O)CC[C@H](NC(=O)CCCCCCCCCCCCCCCCC(=O)O)C(=O)O)NC(=O)[C@@H](N)CC(=O)O)C(C)C)C(N)=O [compound 307, Asp;Lys*;Phe;Val;Gly;NmLeu;Nle;NH2] |  | 64% | 24 | 80% | 85 | ~12000 |  |  | 
CCCC[C@H](NC(=O)[C@H](CC(C)C)N(C)C(=O)CNC(=O)[C@@H](NC(=O)[C@H](Cc1ccc(O)cc1)NC(=O)[C@H](CCCCN)NC(=O)[C@@H](N)CC(=O)O)C(C)C)C(N)=O [compound 374, Asp;Lys;Tyr;Val;Gly;NmLeu;Nle;NH2] (H-DKYVG[NMeL][Nle]-NH2) | 200 nM | 50% | 5.8 | 90% | 0 |  |  |  | 
CCCC[C@H](NC(=O)[C@H](CC(C)C)N(C)C(=O)CNC(=O)[C@@H](NC(=O)[C@H](Cc1ccc(O)cc1)NC(=O)[C@H](CCCCN)NC(=O)[C@H](CC(=O)O)NC(=O)COCCOCCNC(=O)COCCOCCNC(=O)CC[C@H](NC(=O)CCCCCCCCCCCCCCC(=O)O)C(=O)O)C(C)C)C(N)=O [compound 367, *Asp;Lys;Tyr;Val;Gly;NmLeu;Nle;NH2] ({C16 diacid-γGlu-AEEA-AEEA}-DKYVG[NMeL][Nle]-NH2) | ~31000 nM | 20% | 5.6 | 75% | 0 |  |  |  | 
COCC[C@H](NC(=O)[C@H](CC(C)C)NC(=O)CNC(=O)[C@@H](NC(=O)[C@H](Cc1ccc(O)cc1)NC(=O)[C@H](CCCCN)NC(=O)[C@H](CC(=O)O)NC(=O)COCCOCCNC(=O)COCCOCCNC(=O)CC[C@H](NC(=O)CCCCCCCCCCCCCCCCC(=O)O)C(=O)O)C(C)C)C(N)=O [compound 393, *Asp;Lys;Tyr;Val;Gly;Leu;Metox;NH2] ({C18 diacid-γGlu-AEEA-AEEA}-DKYVGL[hSer](Me)-NH2) | 342 nM and 3400 nM | 52% | 10 | 100% | 36 |  | 50 | 30 | 40
CCCC[C@H](NC(=O)[C@H](CC(C)C)NC(=O)[C@@H](CO)NC(=O)[C@@H](NC(=O)[C@H](Cc1ccccc1)NC(=O)[C@H](CCCCN)NC(=O)[C@H](CC(=O)O)NC(=O)COCCOCCNC(=O)COCCOCCNC(=O)CC[C@H](NC(=O)CCCCCCCCCCCCCCCCC(=O)O)C(=O)O)C(C)C)C(N)=O [compound 385, *Asp;Lys;Phe;Val;dSer;Leu;Nle;NH2] ({C18 diacid-γGlu-AEEA-AEEA}-DKFV[dS]L[Nle]-NH2) |  | 0% | 4.5 | 46% | 0 |  |  |  | 
CCCC[C@H](NC(=O)[C@H](CC(C)C)NC(=O)CNC(=O)[C@@H](NC(=O)[C@H](Cc1ccc(O)cc1)NC(=O)[C@H](CCCCN)NC(=O)[C@H](CC(=O)O)NC(=O)COCCOCCNC(=O)COCCOCCNC(=O)CC[C@H](NC(=O)CCCCCCCCCCCCCCCCC(=O)O)C(=O)O)C(C)C)C(N)=O [compound 392, *Asp;Lys;Tyr;Val;Gly;Leu;Nle;NH2] ({C18 diacid-γGlu-AEEA-AEEA}-DKYVGL[Nle]-NH2) | 205 nM and 200 nM | 52% and 30% | 5.4 | 72% and 70% | 0 |  |  |  | 25
COCC[C@H](NC(=O)[C@H](CC(C)C)NC(=O)[C@@H](CO)NC(=O)[C@@H](NC(=O)[C@H](Cc1ccc(O)cc1)NC(=O)[C@H](CCCCN)NC(=O)[C@H](CC(=O)O)NC(=O)COCCOCCNC(=O)COCCOCCNC(=O)CC[C@H](NC(=O)CCCCCCCCCCCCCCCCC(=O)O)C(=O)O)C(C)C)C(N)=O [compound 396, *Asp;Lys;Tyr;Val;dSer;Leu;Metox;NH2] ({C18 diacid-γGlu-AEEA-AEEA}-DKYV[dS]L[hSer](Me)-NH2) |  | 0% | 20 | 92% | 0 |  |  |  | 316
CSCC[C@H](NC(=O)[C@H](CC(C)C)N(C)C(=O)CNC(=O)[C@@H](NC(=O)[C@H](Cc1ccccc1)NC(=O)[C@H](CCCCNC(=O)COCCOCCNC(=O)COCCOCCNC(=O)CC[C@H](NC(=O)CCCCCCCCCCCCCCCCC(=O)O)C(=O)O)NC(=O)[C@H](CC(=O)O)NC(C)=O)C(C)C)C(N)=O [compound 301, **Asp;Lys*;Phe;Val;Gly;NmLeu;Met;NH2] | ~1500 nM | 64% | 38 | 63% | 85 | 160 |  |  | 
CCCC[C@H](NC(=O)[C@H](CC(C)C)N(C)C(=O)CNC(=O)[C@@H](NC(=O)[C@H](Cc1ccc(O)cc1)NC(=O)[C@H](CCCNC(=N)N)NC(=O)[C@H](CCC(=O)O)NC(=O)COCCOCCNC(=O)COCCOCCNC(=O)CC[C@H](NC(=O)CCCCCCCCCCCCCCCCC(=O)O)C(=O)O)C(C)C)C(N)=O [compound 357, *Glu;Arg;Tyr;Val;Gly;NmLeu;Nle;NH2] ({C18 diacid-γGlu-AEEA-AEEA}-ERYVG[NMeL][Nle]-NH2) |  | 50% | 6.5 | 90% | 10 |  |  |  | 
